Measurements published in patent US20250302795A1, “SMALL MOLECULE COMPOUNDS WITH NEGATIVE REGULATORY EFFECTS ON Nrf2 SIGNALING [sequence] AND THEIR POTENTIAL APPLICATIONS” (Beijing Hebabiz Biotechnology Co., Inc., priority 2022, published 2025).

Columns and labels:
Type in all cases: in vivo, rat
[1] = system: rats with nonalcoholic steatohepatitis induced by a high-fat diet and CCl4; assay: Liver histopathology (HE, oil red, Masson staining), high-fat diet and CCl4 model; conditions: positive control groups and NR218 high-, medium-, low-dose groups
Method: (§1) The normal control group were fed a standard diet while the other groups were exclusively fed a high-fat diet consisting of 88% basal diet +10% lard +2% cholesterol for the initial six weeks. Starting from the seventh week, they received subcutaneous injections of a 30% CCl4 olive oil solution at a dosage of 0.2 ml/100 g behind their back twice per week for a total of four times. Once the model was successfully replicated, the corresponding drugs were administered orally (10 ml/kg) in each treatment group, and both the normal control group and the model group received equal volumes of a 0.5% CMC-Na solution once daily for ten consecutive weeks. Throughout the experimental period, the rats were provided with ad libitum access to food and water, while the animal chamber was maintained under controlled conditions of quietness, natural lighting, a temperature of 25±0.5° C., and a humidity level of 55±5%. The rats' body weights were measured once per week and recorded.
After collecting blood samples from the abdominal aorta of rats, the liver tissue was isolated and fixed in a 10% neutral formalin solution. Following standard procedures for embedding, sectioning, dewaxing, staining, clearing, and sealing, the liver tissues were subjected to HE (hematoxylin-eosin), Masson's trichrome, and oil red staining techniques respectively. […]

[2] = system: rats with non-alcoholic steatohepatitis induced by high-fat diet; assay: Liver indices, non-alcoholic steatohepatitis model induced by high-fat diet; conditions: for Liver Indices: high-fat diet model, positive control group
Method: (§2) The normal control group was fed a standard diet for twelve weeks while the other groups were fed a high-fat diet consisting of 88% basal diet+10% lard+2% cholesterol for twelve weeks. After establishing the model, the drug groups received their respective treatments at a dosage of 10 ml/kg while the normal and model groups received an equal volume of 0.5% CMC-Na solution. The rats were provided with ad libitum access to water and food, while the animal chamber was maintained under controlled conditions of quietness, natural lighting, a temperature of 25±0.5° C., and a humidity level of 55±5%. The rats' body weights were measured once per week and recorded.
(3) Liver indices was determined by dividing the wet weight of the liver by the body weight of rats and multiplying by 100%, after liver tissue was isolated, washed with normal saline, dried using filter paper, and weighed following blood sampling from the abdominal aorta. (4) HE staining and oil red staining were performed on liver tissue samples obtained from the abdominal aorta of rats. The tissue was fixed in 10% neutral formalin, followed by embedding, slicing, dewaxing, staining, transparency treatment, and sealing using routine procedures. Microscopic examination was conducted to observe the pathological changes in rat liver tissues across different groups. Additionally, the NASH-CRN scoring system was employed to assess NAS scores. (5) Detection of Proteins Associated with Non-Alcoholic Steatohepatitis

[3] = Body weight of rats, high-fat diet non-alcoholic steatohepatitis model; conditions: positive control group, in g (unit assumed)
Method: as §2
The rats were weighed weekly to monitor the fluctuations in body weight within each experimental group.

[4] = system: rats with nonalcoholic steatohepatitis induced by a high-fat diet and CCl4; assay: Liver indices, non-alcoholic steatohepatitis model induced by high-fat diet and CCl4; conditions: positive control group
Method: as §1
After blood sampling from the abdominal aorta of rats, the liver tissue was isolated, rinsed with normal saline solution, dried using filter paper, weighed accurately, and subsequently calculated the Liver indices: Liver indices=wet liver weight/body weight×100%.

[5] = system: rats with nonalcoholic steatohepatitis induced by a high-fat diet and CCl4; assay: Serum biochemical indices, high-fat diet and CCl4 model; conditions: end of tenth week of administration, positive control group; for HOMA-IR: FPG x FINS/22.5
Method: as §1, with “Starting” for “The normal control group were fed a standard diet while the other groups were exclusively fed a high-fat diet consisting of 88% basal diet +10% lard +2% cholesterol for the initial six weeks. Starting”
(§3) At the end of the tenth week of administration, all rats underwent a 16-hour fasting period following their final administration and were intraperitoneally injected with a 20% ulinastatin solution (10 ml/kg) for anesthesia. Subsequently, blood samples were collected from the abdominal aorta and allowed to stand for one hour, and then centrifuged at 4° C. for fifteen minutes at a speed of 3000 r/min. Finally, the upper serum was stored at −80° C. Following the instructions provided with the biochemical index detection kit, levels of HDL-C, LDL-C, NEFA, AST, ALT, UA, TC, TG, PCIII, IV-C LN and HA in rat serum were determined.
According to the kit instructions, the concentration of fasting plasma glucose (FPG) in serum was determined using colorimetry, while the concentration of fasting insulin (FINS) in serum was measured through radioimmunoassay.

[6] = Body weight of rats, high-fat diet + CCl4 non-alcoholic steatohepatitis model; conditions: positive control group, in g (unit assumed)
Method: as §1
The weight changes of rats in each group were compared by conducting weekly weigh-ins after the experiment.

[7] = system: rats with nonalcoholic steatohepatitis induced by a high-fat diet and CCl4; assay: Four indices of serum hepatic fibrosis, high-fat diet and CCl4 model; conditions: positive control group
Method: as §1, with “Starting” for “The normal control group were fed a standard diet while the other groups were exclusively fed a high-fat diet consisting of 88% basal diet +10% lard +2% cholesterol for the initial six weeks. Starting”
as §3

## CC[C@H](C)C(=O)O[C@H]1C[C@@H](C)C=C2C=C[C@H](C)[C@H](CC[C@@H]3C[C@@H](O)CC(=O)O3)[C@H]21 [Lovastatin]
[1]
  Oil red O staining of liver tissue (in words): significantly ameliorated steatosis severity and reduced lipid droplet content
[2]; NR218 at high, medium and low doses, P<0.01 or P<0.05
  liver indices versus model group (in words): significant decrease compared to the model group
[2]
  Liver Indices: 3.23 ± 0.56 %
[3]; week 0 (pre-administration)
  body weight: 196.21 ± 4.57
[3]; week 1 (pre-administration)
  body weight: 258.64 ± 9.56
[3]; week 2 (pre-administration)
  body weight: 315.91 ± 19.58
[3]; week 3 (pre-administration)
  body weight: 356.16 ± 26.94
[3]; week 4 (pre-administration)
  body weight: 392.60 ± 32.93
[3]; week 5 (pre-administration)
  body weight: 432.81 ± 38.14
[3]; week 6 (pre-administration)
  body weight: 464.35 ± 45.01
[3]; week 7 (pre-administration)
  body weight: 482.88 ± 44.36
[3]; week 8 (pre-administration)
  body weight: 503.37 ± 45.95
[3]; week 9 (pre-administration)
  body weight: 530.26 ± 48.68
[3]; week 10 (pre-administration)
  body weight: 548.47 ± 45.65
[3]; week 11 (pre-administration)
  body weight: 547.23 ± 54.49
[3]; week 12 (pre-administration)
  body weight: 543.06 ± 66.86
[3]; week 13
  body weight: 534.63 ± 62.63
[3]; week 14
  body weight: 542.19 ± 52.03
[3]; week 15
  body weight: 543.36 ± 47.44
[3]; week 16
  body weight: 547.25 ± 37.26
[3]; week 17
  body weight: 561.64 ± 53.62
[3]; week 18
  body weight: 593.39 ± 48.55
[3]; week 19
  body weight: 615.74 ± 52.23
[3]; week 20
  body weight: 600.22 ± 50.84
[4]
  Liver Indices: 3.56 ± 0.49%
[5]
  HOMA-IR: 5.50
[5]; serum
  ALT: 43.66 U/L
  AST: 69.18 U/L
  HDL-C: 1.31 mmol/L
  LDL-C: 1.20 mmol/L
  NEFA: 0.76 mmol/L
[6]; week 1
  body weight: 195.70 ± 6.24
[6]; week 2
  body weight: 253.01 ± 9.37
[6]; week 3
  body weight: 315.37 ± 15.71
[6]; week 4
  body weight: 368.78 ± 19.25
[6]; week 5
  body weight: 409.85 ± 24.64
[6]; week 6
  body weight: 439.81 ± 28.73
[6]; week 7
  body weight: 470.75 ± 34.51
[6]; week 8
  body weight: 491.21 ± 35.35
[6]; week 9
  body weight: 491.46 ± 34.37
[6]; week 10
  body weight: 503.05 ± 37.51
[6]; week 11
  body weight: 486.62 ± 44.00
[6]; week 12
  body weight: 506.22 ± 46.50
[6]; week 13
  body weight: 530.00 ± 54.43
[6]; week 14
  body weight: 531.16 ± 48.26
[6]; week 15
  body weight: 525.60 ± 53.49
[6]; week 16
  body weight: 539.63 ± 46.78
[6]; week 17
  body weight: 555.78 ± 49.24
[6]; week 18
  body weight: 561.12 ± 51.49
[7]
  IV-C: 15.59 ± 7.47 µg/L
  PC-III: 10.52 ± 2.34 µg/L

## CC[C@H]1[C@@H](O)[C@@H]2[C@H](CC[C@]3(C)[C@@H]([C@H](C)CCC(=O)O)CC[C@@H]23)[C@@]2(C)CC[C@@H](O)C[C@@H]12 [Ocaliva, Obercholic acid]
[2]
  Liver Indices: 2.95 ± 0.68 %
[3]; week 0 (pre-administration)
  body weight: 197.61 ± 4.50
[3]; week 1 (pre-administration)
  body weight: 257.27 ± 10.59
[3]; week 2 (pre-administration)
  body weight: 318.89 ± 11.61
[3]; week 3 (pre-administration)
  body weight: 362.58 ± 18.50
[3]; week 4 (pre-administration)
  body weight: 403.03 ± 23.75
[3]; week 5 (pre-administration)
  body weight: 439.43 ± 29.45
[3]; week 6 (pre-administration)
  body weight: 474.15 ± 35.23
[3]; week 7 (pre-administration)
  body weight: 492.08 ± 37.59
[3]; week 8 (pre-administration)
  body weight: 520.77 ± 41.63
[3]; week 9 (pre-administration)
  body weight: 548.10 ± 47.45
[3]; week 10 (pre-administration)
  body weight: 552.73 ± 51.34
[3]; week 11 (pre-administration)
  body weight: 552.52 ± 56.26
[3]; week 12 (pre-administration)
  body weight: 570.97 ± 53.36
[3]; week 13
  body weight: 552.25 ± 68.34
[3]; week 14
  body weight: 551.61 ± 63.47
[3]; week 15
  body weight: 559.94 ± 61.90
[3]; week 16
  body weight: 572.35 ± 60.86
[3]; week 17
  body weight: 573.51 ± 72.23
[3]; week 18
  body weight: 599.13 ± 55.71
[3]; week 19
  body weight: 615.97 ± 56.23
[3]; week 20
  body weight: 601.19 ± 60.01
[4]
  Liver Indices: 3.57 ± 0.31%
[5]
  HOMA-IR: 4.90
[5]; serum
  ALT: 54.91 U/L
  AST: 62.32 U/L
  HDL-C: 1.30 mmol/L
  LDL-C: 1.29 mmol/L
  NEFA: 0.69 mmol/L
  TC: 1.76 mmol/L
  TG: 0.50 mmol/L
  UA: 106 µmol/L
[6]; week 1
  body weight: 192.12 ± 5.16
[6]; week 2
  body weight: 251.85 ± 11.78
[6]; week 3
  body weight: 316.12 ± 16.31
[6]; week 4
  body weight: 359.50 ± 15.40
[6]; week 5
  body weight: 389.95 ± 30.78
[6]; week 6
  body weight: 432.14 ± 23.79
[6]; week 7
  body weight: 462.23 ± 28.00
[6]; week 8
  body weight: 487.97 ± 30.51
[6]; week 9
  body weight: 487.63 ± 39.07
[6]; week 10
  body weight: 505.41 ± 41.23
[6]; week 11
  body weight: 493.66 ± 55.42
[6]; week 12
  body weight: 509.99 ± 49.38
[6]; week 13
  body weight: 532.39 ± 48.08
[6]; week 14
  body weight: 532.75 ± 52.06
[6]; week 15
  body weight: 498.86 ± 46.37
[6]; week 16
  body weight: 493.95 ± 43.25
[6]; week 17
  body weight: 515.43 ± 41.21
[6]; week 18
  body weight: 525.15 ± 42.35
[7]
  HA: 50.19 ± 17.94 µg/L
  IV-C: 15.40 ± 7.08 µg/L
  LN: 118.43 ± 39.88 µg/L
  PC-III: 10.82 ± 1.64 µg/L
